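96-well plates; 48 h exposure; 5 concentrations. Endpoints by linear interpolation between flanking doses. Not reached: highest tested concentration assigned. At the TGI there is no net growth.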
What was measured:
Assay in all cases: NCI tumour cell line growth inhibition, 48 h
CAKI-1 renal = system: CAKI-1 renal
IGROV1 ovarian = system: IGROV1 ovarian
BT-549 breast = system: BT-549 breast
OVCAR-8 ovarian = system: OVCAR-8 ovarian
K-562 leukemia = system: K-562 leukemia
NCI-H522 lung = system: NCI-H522 lung
HOP-92 NSCLC = system: HOP-92 NSCLC
SK-OV-3 ovarian = system: SK-OV-3 ovarian
MCF7 breast = system: MCF7 breast
HS 578T breast = system: HS 578T breast
NCI-H460 lung = system: NCI-H460 lung
786-0 renal = system: 786-0 renal
SF-268 CNS = system: SF-268 CNS
MDA-MB-435 = system: MDA-MB-435
A498 renal = system: A498 renal
HCT-116 colon = system: HCT-116 colon
MALME-3M melanoma = system: MALME-3M melanoma
OVCAR-4 ovarian = system: OVCAR-4 ovarian
SK-MEL-28 melanoma = system: SK-MEL-28 melanoma
OVCAR-3 ovarian = system: OVCAR-3 ovarian
LOX IMVI melanoma = system: LOX IMVI melanoma
PC-3 prostate = system: PC-3 prostate
SK-MEL-5 melanoma = system: SK-MEL-5 melanoma
SF-295 CNS = system: SF-295 CNS
M14 melanoma = system: M14 melanoma
OVCAR-5 ovarian = system: OVCAR-5 ovarian
NCI-H23 lung = system: NCI-H23 lung
EKVX NSCLC = system: EKVX NSCLC
NCI-H226 lung = system: NCI-H226 lung
HOP-62 NSCLC = system: HOP-62 NSCLC
HCC-2998 colon = system: HCC-2998 colon
UO-31 renal = system: UO-31 renal
U251 CNS = system: U251 CNS
MDA-N = system: MDA-N
UACC-62 melanoma = system: UACC-62 melanoma
SK-MEL-2 melanoma = system: SK-MEL-2 melanoma
SNB-19 CNS = system: SNB-19 CNS
RXF 393 renal = system: RXF 393 renal
SF-539 CNS = system: SF-539 CNS
T-47D breast = system: T-47D breast
NCI/ADR-RES ovarian = system: NCI/ADR-RES ovarian
MOLT-4 leukemia = system: MOLT-4 leukemia
UACC-257 melanoma = system: UACC-257 melanoma
SR leukemia = system: SR leukemia
SNB-75 CNS = system: SNB-75 CNS
COLO 205 colon = system: COLO 205 colon
TK-10 renal = system: TK-10 renal
HT29 colon = system: HT29 colon
SN12C renal = system: SN12C renal
ACHN renal = system: ACHN renal
RPMI-8226 leukemia = system: RPMI-8226 leukemia
A549 NSCLC = system: A549 NSCLC
HL-60(TB) leukemia = system: HL-60(TB) leukemia
CCRF-CEM leukemia = system: CCRF-CEM leukemia
KM12 colon = system: KM12 colon
SW-620 colon = system: SW-620 colon
MDA-MB-231 breast = system: MDA-MB-231 breast
DU-145 prostate = system: DU-145 prostate
HCT-15 colon = system: HCT-15 colon
M19-MEL melanoma = system: M19-MEL melanoma

For `O=c1[nH]nc(Cc2ccc(Cl)cc2)n1/N=C\CC/C=N\n1c(Cc2ccc(Cl)cc2)n[nH]c1=O`, the TGI (CAKI-1 renal) was over 100 µM, the TGI (IGROV1 ovarian) was 41.3 µM and the TGI (BT-549 breast) was over 83.2 µM. For the same compound, the TGI (OVCAR-8 ovarian) was 37 µM, the TGI (K-562 leukemia) was over 100 µM and the TGI (NCI-H522 lung) was over 100 µM. It also gave a TGI (HOP-92 NSCLC) of over 100 µM, a TGI (SK-OV-3 ovarian) of over 100 µM and a TGI (MCF7 breast) of over 100 µM. It also gave a TGI (HS 578T breast) of 36.5 µM, a TGI (NCI-H460 lung) of over 100 µM and a TGI (786-0 renal) of over 53.5 µM. The TGI (SF-268 CNS) was 37.9 µM, the TGI (MDA-MB-435) was over 100 µM and the TGI (A498 renal) was over 100 µM. It also gave a TGI (HCT-116 colon) of over 100 µM, a TGI (MALME-3M melanoma) of over 84.7 µM and a TGI (OVCAR-4 ovarian) of over 100 µM. For the same compound, the TGI (SK-MEL-28 melanoma) was 96.9 µM, the TGI (OVCAR-3 ovarian) was over 100 µM and the TGI (LOX IMVI melanoma) was over 100 µM. For the same compound, the TGI (PC-3 prostate) was over 100 µM, the TGI (SK-MEL-5 melanoma) was over 100 µM and the TGI (SF-295 CNS) was over 78.1 µM. For the same compound, the TGI (M14 melanoma) was over 100 µM, the TGI (OVCAR-5 ovarian) was over 100 µM and the TGI (NCI-H23 lung) was over 100 µM. The TGI (EKVX NSCLC) was 78.5 µM, the TGI (NCI-H226 lung) was over 71 µM and the TGI (HOP-62 NSCLC) was 27.5 µM. It also gave a TGI (HCC-2998 colon) of over 100 µM, a TGI (UO-31 renal) of over 100 µM and a TGI (U251 CNS) of 46 µM. For the same compound, the TGI (MDA-N) was over 100 µM, the TGI (UACC-62 melanoma) was 45.7 µM and the TGI (SK-MEL-2 melanoma) was over 69.7 µM. It also gave a TGI (SNB-19 CNS) of over 92.8 µM, a TGI (RXF 393 renal) of 76.1 µM and a TGI (SF-539 CNS) of 40.6 µM. The TGI (T-47D breast) was over 100 µM, the TGI (NCI/ADR-RES ovarian) was over 66.3 µM and the TGI (MOLT-4 leukemia) was over 96.5 µM. It also gave a TGI (UACC-257 melanoma) of over 100 µM, a TGI (SR leukemia) of 14.8 µM and a TGI (SNB-75 CNS) of 23.1 µM. It also gave a TGI (COLO 205 colon) of over 100 µM, a TGI (TK-10 renal) of over 100 µM and a TGI (HT29 colon) of over 100 µM. For the same compound, the TGI (SN12C renal) was over 100 µM, the TGI (ACHN renal) was over 100 µM and the TGI (RPMI-8226 leukemia) was over 100 µM. For the same compound, the TGI (A549 NSCLC) was over 100 µM, the TGI (HL-60(TB) leukemia) was over 100 µM and the TGI (CCRF-CEM leukemia) was over 88.9 µM. It also gave a TGI (KM12 colon) of over 100 µM, a TGI (SW-620 colon) of over 100 µM and a TGI (MDA-MB-231 breast) of over 58.4 µM. The TGI (DU-145 prostate) was over 100 µM and the TGI (HCT-15 colon) was over 100 µM.

Work on `COc1ccc(C(c2ccccc2)C(C)C(=O)c2c(C)cc(C)cc2C)cc1` (stereo not drawn) yielded a TGI (K-562 leukemia) of over 100 µM, a TGI (NCI-H522 lung) of over 100 µM and a TGI (MALME-3M melanoma) of over 100 µM. For the same compound, the TGI (M19-MEL melanoma) was over 100 µM, the TGI (HT29 colon) was over 100 µM and the TGI (RPMI-8226 leukemia) was over 100 µM.

For `O=C(CCCl)NNC1=NCCN1`, the TGI (IGROV1 ovarian) was over 100 µM, the TGI (BT-549 breast) was over 100 µM and the TGI (OVCAR-8 ovarian) was over 100 µM. The TGI (K-562 leukemia) was over 100 µM, the TGI (NCI-H522 lung) was over 100 µM and the TGI (HOP-92 NSCLC) was over 100 µM. It also gave a TGI (SK-OV-3 ovarian) of over 100 µM, a TGI (MCF7 breast) of over 100 µM and a TGI (HS 578T breast) of over 100 µM. For the same compound, the TGI (NCI-H460 lung) was over 100 µM, the TGI (786-0 renal) was over 100 µM and the TGI (SF-268 CNS) was over 100 µM. For the same compound, the TGI (MDA-MB-435) was over 100 µM, the TGI (A498 renal) was over 100 µM and the TGI (HCT-116 colon) was over 100 µM. For the same compound, the TGI (MALME-3M melanoma) was over 100 µM, the TGI (OVCAR-4 ovarian) was over 100 µM and the TGI (SK-MEL-28 melanoma) was over 100 µM. The TGI (OVCAR-3 ovarian) was over 100 µM, the TGI (LOX IMVI melanoma) was over 100 µM and the TGI (PC-3 prostate) was over 100 µM. For the same compound, the TGI (SK-MEL-5 melanoma) was over 100 µM, the TGI (SF-295 CNS) was over 100 µM and the TGI (M14 melanoma) was over 100 µM. It also gave a TGI (OVCAR-5 ovarian) of over 100 µM, a TGI (NCI-H23 lung) of over 100 µM and a TGI (EKVX NSCLC) of over 100 µM. For the same compound, the TGI (NCI-H226 lung) was over 100 µM, the TGI (HOP-62 NSCLC) was over 100 µM and the TGI (HCC-2998 colon) was over 100 µM. For the same compound, the TGI (UO-31 renal) was over 100 µM, the TGI (U251 CNS) was over 100 µM and the TGI (MDA-N) was over 100 µM. It also gave a TGI (UACC-62 melanoma) of over 100 µM, a TGI (SK-MEL-2 melanoma) of over 100 µM and a TGI (SNB-19 CNS) of over 100 µM. For the same compound, the TGI (RXF 393 renal) was over 100 µM, the TGI (SF-539 CNS) was over 100 µM and the TGI (T-47D breast) was over 100 µM. It also gave a TGI (NCI/ADR-RES ovarian) of over 100 µM, a TGI (MOLT-4 leukemia) of over 100 µM and a TGI (UACC-257 melanoma) of over 100 µM. The TGI (SR leukemia) was over 100 µM, the TGI (SNB-75 CNS) was over 100 µM and the TGI (COLO 205 colon) was over 100 µM. It also gave a TGI (TK-10 renal) of over 100 µM, a TGI (HT29 colon) of over 100 µM and a TGI (SN12C renal) of over 100 µM. It also gave a TGI (ACHN renal) of over 100 µM, a TGI (RPMI-8226 leukemia) of over 100 µM and a TGI (A549 NSCLC) of over 100 µM. It also gave a TGI (HL-60(TB) leukemia) of over 100 µM, a TGI (CCRF-CEM leukemia) of over 100 µM and a TGI (KM12 colon) of over 100 µM. The TGI (SW-620 colon) was over 100 µM, the TGI (MDA-MB-231 breast) was over 100 µM and the TGI (DU-145 prostate) was over 100 µM. The TGI (HCT-15 colon) was over 100 µM.

From PubChem BioAssay (NCI)
